According to the supplement of paper PMC11061612:

Legend:
Experiment in all cases: Bliss excess, mean over the matrix (fraction); higher = more synergy
[1] = test system: LN-229 (Glioblastoma)
Outline: (§1)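 Cell lines in DMEM/F12 or RPMI with 10% FBS were plated in 1536-well plates, held 24 hours at 37°C, 5% CO2, then given two-drug dose matrices for 72 hours (DMSO typically 0.2%). Viability was read by CellTiter-Glo 2.0 luminescence and scaled as inhibition from 0 (vehicle wells) to 1 (blank wells). Combination Emax is the second-highest inhibition in the matrix; Bliss excess is observed combination effect minus expected EA + EB − EA·EB, EA and EB being single-agent effects.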

[2] = test system: NCI-H2342 (Lung Adenocarcinoma)
Outline: as §1

[3] = test system: RERF-LC-Sq1 (Squamous Cell Lung Carcinoma)
Outline: as §1

[4] = test system: GB-1 (Glioblastoma)
Outline: as §1

[5] = test system: IST-MES1 (Mesothelioma)
Outline: as §1

[6] = test system: MFE-280 (Endometrial Carcinoma)
Outline: as §1

[7] = test system: CAL-120 (Breast Carcinoma)
Outline: as §1

[8] = test system: VAL (B-Cell Non-Hodgkin's Lymphoma)
Outline: as §1

[9] = test system: HSC-39 (Gastric Carcinoma)
Outline: as §1

[10] = test system: COLO-680N (Esophageal Squamous Cell Carcinoma)
Outline: as §1

[11] = test system: RCM-1 (Colorectal Carcinoma)
Outline: as §1

[12] = test system: RERF-GC-1B (Gastric Carcinoma)
Outline: as §1

[13] = test system: HEC-1 (Endometrial Carcinoma)
Outline: as §1

[14] = test system: LB996-RCC (Kidney Carcinoma)
Outline: as §1

[15] = test system: GP5d (Colorectal Carcinoma)
Outline: as §1

[16] = test system: MKN45 (Gastric Carcinoma)
Outline: as §1

[17] = test system: NCI-H23 (Lung Adenocarcinoma)
Outline: as §1

[18] = test system: 23132-87 (Gastric Carcinoma)
Outline: as §1

[19] = test system: SU-DHL-10 (B-Cell Non-Hodgkin's Lymphoma)
Outline: as §1

`CN(C)CCCOc1ccc(-c2ccc3ncc4c(c3c2)n(C2CCOCC2)c(=O)n4C)cn1` [AZD0156] + C=CCn1c(=O)c2cnc(Nc3ccc(N4CCN(C)CC4)cc3)nc2n1-c1cccc(C(C)(C)O)n1 [AZD1775] (first compound max 1 µM, partner max 1 µM) showed a Bliss excess [1] of -0.0831, a Bliss excess [2] of -0.0612 and a Bliss excess [3] of 0.0224. The Bliss excess [4] was -0.0219, the Bliss excess [5] was -0.0624 and the Bliss excess [6] was 0.0145. It also gave a Bliss excess [7] of -0.0638, a Bliss excess [8] of -0.0082 and a Bliss excess [9] of -0.0144. The Bliss excess [10] was -0.0252, the Bliss excess [11] was -0.0621 and the Bliss excess [12] was -0.0318. The Bliss excess [13] was -0.0257, the Bliss excess [14] was -0.0219 and the Bliss excess [15] was -0.0369. For the same molecule, the Bliss excess [16] was -0.0774, the Bliss excess [17] was -0.0406 and the Bliss excess [18] was 0.0164. It also gave a Bliss excess [19] of -0.0088.
Molecule `CN(C)CCCOc1ccc(-c2ccc3ncc4c(c3c2)n(C2CCOCC2)c(=O)n4C)cn1` [AZD0156] + CCN(CCO)CCCOc1ccc2c(Nc3cc(CC(=O)Nc4cccc(F)c4)[nH]n3)ncnc2c1 [AZD2811] (first compound max 1 µM, 7x7, partner max 1 µM) has a Bliss excess [1] of -0.0331, a Bliss excess [2] of -0.054 and a Bliss excess [3] of 0.0325. The Bliss excess [4] was -0.034, the Bliss excess [5] was -0.0439 and the Bliss excess [6] was 0.0072. The Bliss excess [7] was -0.0164, the Bliss excess [8] was -0.0341 and the Bliss excess [9] was -0.0113. For the same molecule, the Bliss excess [10] was -0.0404, the Bliss excess [11] was -0.0241 and the Bliss excess [12] was 0.0292. It also gave a Bliss excess [13] of -0.0152, a Bliss excess [14] of 0.0375 and a Bliss excess [15] of 0.004. It also gave a Bliss excess [16] of 0.0034, a Bliss excess [17] of -0.0119 and a Bliss excess [18] of -0.025. It also gave a Bliss excess [19] of -0.0813.
With `CN(C)CCCOc1ccc(-c2ccc3ncc4c(c3c2)n(C2CCOCC2)c(=O)n4C)cn1` [AZD0156] + C[C@@H]1COCCN1C2=NC(=NC(=C2)C3(CC3)[S@](=N)(=O)C)C4=C5C=CNC5=NC=C4 [AZD6738] (first compound max 1 µM, 7x7, partner max 10 µM) the Bliss excess [1] was -0.0412, the Bliss excess [2] was -0.0487 and the Bliss excess [3] was 0.0544. The Bliss excess [4] was -0.0132, the Bliss excess [5] was -0.0679 and the Bliss excess [6] was -0.0116. It also gave a Bliss excess [7] of 0.0142, a Bliss excess [8] of -0.0049 and a Bliss excess [9] of 0.0054. The Bliss excess [10] was -0.0311, the Bliss excess [11] was -0.0343 and the Bliss excess [12] was 0.0249. For the same molecule, the Bliss excess [13] was -0.004, the Bliss excess [14] was 0.0089 and the Bliss excess [15] was 0.0291. It also gave a Bliss excess [16] of 0.0072, a Bliss excess [17] of -0.0218 and a Bliss excess [18] of 0.0549. It also gave a Bliss excess [19] of 0.0699.
With `C=CCn1c(=O)c2cnc(Nc3ccc(N4CCN(C)CC4)cc3)nc2n1-c1cccc(C(C)(C)O)n1` [AZD1775] + C[C@@H]1COCCN1C2=NC(=NC(=C2)C3(CC3)[S@](=N)(=O)C)C4=C5C=CNC5=NC=C4 [AZD6738] (first compound max 1 µM, partner max 10 µM) the Bliss excess [1] was -0.0069, the Bliss excess [2] was -0.0687 and the Bliss excess [3] was 0.0211. It also gave a Bliss excess [5] of -0.025, a Bliss excess [6] of 0.0536 and a Bliss excess [7] of 0.0021. It also gave a Bliss excess [8] of 0.0239, a Bliss excess [9] of 0.0459 and a Bliss excess [10] of 0.0196. The Bliss excess [11] was 0.0014, the Bliss excess [12] was 0.0634 and the Bliss excess [13] was 0.0694. The Bliss excess [14] was 0.011, the Bliss excess [15] was 0.0418 and the Bliss excess [16] was -0.0711. It also gave a Bliss excess [17] of 0.0238, a Bliss excess [18] of 0.083 and a Bliss excess [19] of 0.0505.
`C=CCn1c(=O)c2cnc(Nc3ccc(N4CCN(C)CC4)cc3)nc2n1-c1cccc(C(C)(C)O)n1` [AZD1775] + O=C(c1cc(Cc2n[nH]c(=O)c3ccccc23)ccc1F)N1CCN(C(=O)C2CC2)CC1 [Olaparib] (first compound max 1 µM, partner max 10 µM) showed a Bliss excess [1] of -0.0851, a Bliss excess [2] of -0.0372 and a Bliss excess [3] of -0.0211. It also gave a Bliss excess [4] of -0.0537, a Bliss excess [5] of -0.0409 and a Bliss excess [6] of -0.0652. For the same molecule, the Bliss excess [7] was 0.0027, the Bliss excess [8] was -0.0411 and the Bliss excess [9] was 0.0277. For the same molecule, the Bliss excess [10] was -0.0482, the Bliss excess [11] was -0.0861 and the Bliss excess [12] was -0.0124. The Bliss excess [13] was 0.0039, the Bliss excess [15] was 0.0252 and the Bliss excess [16] was -0.005. For the same molecule, the Bliss excess [17] was -0.035, the Bliss excess [18] was -0.0282 and the Bliss excess [19] was -0.0229.
`CCN(CCO)CCCOc1ccc2c(Nc3cc(CC(=O)Nc4cccc(F)c4)[nH]n3)ncnc2c1` [AZD2811] + C=CCn1c(=O)c2cnc(Nc3ccc(N4CCN(C)CC4)cc3)nc2n1-c1cccc(C(C)(C)O)n1 [AZD1775] (first compound max 1 µM, partner max 1 µM) gave a Bliss excess [1] of -0.0363, a Bliss excess [2] of -0.0052 and a Bliss excess [3] of -0.0102. The Bliss excess [4] was 0.0002, the Bliss excess [5] was -0.04 and the Bliss excess [6] was 0.0727. It also gave a Bliss excess [7] of -0.0576, a Bliss excess [8] of -0.087 and a Bliss excess [9] of 0.0224. The Bliss excess [10] was -0.0147, the Bliss excess [11] was 0.0398 and the Bliss excess [12] was 0.0335. It also gave a Bliss excess [13] of 0.0124, a Bliss excess [14] of 0.0623 and a Bliss excess [15] of 0.08. The Bliss excess [16] was -0.0302, the Bliss excess [17] was -0.0005 and the Bliss excess [18] was 0.0208. It also gave a Bliss excess [19] of -0.0481.
Work on `CCN(CCO)CCCOc1ccc2c(Nc3cc(CC(=O)Nc4cccc(F)c4)[nH]n3)ncnc2c1` [AZD2811] + C[C@@H]1COCCN1C2=NC(=NC(=C2)C3(CC3)[S@](=N)(=O)C)C4=C5C=CNC5=NC=C4 [AZD6738] (first compound max 1 µM, 7x7, partner max 10 µM) yielded a Bliss excess [1] of -0.0563, a Bliss excess [2] of -0.0706 and a Bliss excess [3] of -0.0169. For the same molecule, the Bliss excess [4] was -0.009, the Bliss excess [5] was -0.0613 and the Bliss excess [6] was -0.0223. For the same molecule, the Bliss excess [7] was -0.0464, the Bliss excess [8] was -0.0336 and the Bliss excess [9] was -0.0107. For the same molecule, the Bliss excess [10] was -0.0737, the Bliss excess [11] was -0.0263 and the Bliss excess [12] was 0.0143. It also gave a Bliss excess [13] of -0.0175, a Bliss excess [14] of 0.0304 and a Bliss excess [15] of -0.0575. For the same molecule, the Bliss excess [16] was -0.0439, the Bliss excess [17] was -0.0308 and the Bliss excess [18] was -0.0087. It also gave a Bliss excess [19] of -0.0609.
